PMC8571378, “Reversion analysis reveals the in vivo immunogenicity of a poorly MHC I-binding cancer neoepitope” (Nature Communications, 2021)
No end group written: not given here.

Key:
[1] = test system: Meth A; assay: Tumor rejection (immunization-challenge) assay; tumor growth AUC and tumor rejection score (TRS); type: in vivo, BALB/cJ mice; details: BALB/cJ mice immunized twice, CTLA4 blockade
Procedure: Each line represents tumor growth in a single mouse (n = 5 mice per group). AUC for each group is plotted in the panel on the right. Data are presented as mean ± SD. P values were calculated using 1-way ANOVA test adjusted for multiple comparisons (Tukey’s multiple comparison test). c Several truncated versions of the 18-mer Ccdc85c^MUT peptide were tested in tumor rejection assay. BALB/cJ mice were immunized and tumor challenged. Each line represents tumor growth in a single mouse. Although mice were immunized with individual peptides, the data for multiple peptides are grouped into one with the composition of the peptides shown on the right. The tumor rejection data for individual peptides are shown in Supplementary Fig. 1. Tumor rejection score (TRS) for each neoepitope is shown in the yellow box, where five represents a complete tumor protection and zero means no tumor rejection. d On the left panel, total Area Under the Curve (AUC) scores for each group in B are plotted. […] Error bars represent standard deviation (SD). […] P values were calculated using 1-way ANOVA test adjusted for multiple comparisons. […] Matched peak lists for the “heavy” and “light” ions were extracted and monitored, while only single charge y ions were plotted. See Methods for details. f Predicted (by NetMHC4.0) and measured IC50 values of the binding of candidate precise neoepitopes of Ccdc85c^MUT to K^d are shown. […] The affinities of the MS/TRS predicted neoepitopes were also measured for D^d and L^d; measured affinities were below the level of detection.
The mutation is heterozygous and the un-mutated as well as the mutated reads are detected in the transcripts. […] All mice were challenged with the Meth A cells, and tumor rejection was monitored (Fig. 1b upper panel). […]
Area under the curve (AUC) is used as a tool to measure tumor growth. Briefly, AUC was calculated by selecting “Curves & Regression” and then “Area under curve” from the “analyze” tool, using the Prism 5.0 (GraphPad). […]

[2] = test system: splenic CD8 T cells; assay: ELIspot for interferon γ of splenic CD8 T cells from immunized mice; type: cell-based, BALB/c mice; details: spleens seven days after second immunization; in vitro stimulation with immunizing 18-mer, 10 µM
Text: BALB/c mice were immunized with 18-mer peptides containing Ccdc85c^MUT as well as Ccdc85c^WT as described in Methods. Spleens were harvested seven days after the second immunization and splenic CD8 T cells tested by ELIspot for interferon γ production in response to stimulation in vitro with the peptides used for immunization. […] Since the CD8 response detected in vitro was so modest, CD8 response as detected in vivo in the tumor microenvironment became our focus.
Supplementary Fig. 3. CD8 response to Ccdc85cMUT and Ccdc85cWT peptides. BALB/c mice were immunized twice at a weekly interval with 18-mer peptides containing Ccdc85cWT (left) or Ccdc85cMUT (right) as described in Methods. Spleens were harvested seven days after the second immunization and CD8 T cells stimulated in vitro with the peptides (10 µM concentration) used for immunization, as indicated. CD8 cells were analyzed for release of interferon g. Each dot represents a single mouse. The P values were calculated using two tailed t-test. Data are presented as mean values +/- SD. […]

[3] = test system: H2-A^d; assay: MHC II cell-surface density assay, H2-A^d; type: cell-based, mouse; details: NIH3T3 cells, flow cytometry 48 h after transduction; peptides adjusted to 12-mer with N-terminal glycines; MUT vs WT counterpart
Text: (§1) In order to determine if any peptides within Ccdc85c^MUT could be presented by MHC II molecules, we analyzed the interaction of H2-A^d and H2-E^d with […], […] and IRPFETKVK as well as their wild type counterparts, using a cell-surface density assay. In this assay, β-chains of H2-Ab1^d or H2-Eb1^d are expressed in fusion with the peptide of interest and the amount of cell-surface MHC II, as a measure of intrinsic stability of MHC II, is quantified in engineered conditions. The measured cell-surface MHC density correlates well with the actual affinity of the peptide to MHC II. […] This was observed when CD4 depletion was carried out during the priming phase alone (as in Supplementary Fig. 2b), or throughout the entire experiment including the effector phase (i.e. post tumor challenge).
(§2) MHC II-peptide binding analysis was conducted by cell-surface density assay[18] with modifications. […] Cell-surface expression of H2-A^d or H2-E^d and cytoplasmic expression of GFP in GFP^+ MHC^+ cells were measured by flow cytometry 48 h after the transduction, using the following antibodies: H2-A^d, anti-mouse I-A^d mAb with the dilution of 1:10, 20 μl per sample (39-10-8, BioLegend) or mouse IgG3 isotype control with the dilution of 1:100, 10 μl per sample (m078-3, clone 6A3, Medical & Biological Laboratories Co. Ltd.) and goat anti-mouse IgG3-PE with the dilution of 1:20, 15 μl per sample (sc-3767, Santa Cruz Biotechnology, Inc.); H2-E, anti-I-E^d mAb with the dilution of 1:40, 10 μl per sample (115002, 14-4-4 S, Thermo Fisher) or mouse IgG2a isotype control with the dilution of 1:10, 10 μl per sample (m076-3, clone 6H3, Medical & Biological Laboratories Co. Ltd.) and goat F(ab’)2 Anti-mouse Ig-PE with the dilution of 1:20, 20 μl per sample (1012-09, Southern Biotechnology Associates Inc.). The ratio of MHC MFI to GFP MFI (MHC/GFP) for each MHC II-peptide combination was calculated and normalized to the MHC/GFP for respective MHC II allele-G9 peptide. On each assay date, MHC/GFP for each MHC II-peptide combination was measured for three or four wells and their average was determined. […]

[4] = test system: H2-E^d; assay: MHC II cell-surface density assay, H2-E^d; type: cell-based, mouse; details: NIH3T3 cells, flow cytometry 48 h after transduction; peptides adjusted to 12-mer with N-terminal glycines; MUT vs WT counterpart
Text: as §1, §2

[5] = target: T1, K^d (Mus musculus, UniProt P01902); assay: Measured peptide binding to K^d
T1 sequence (P01902 22-368): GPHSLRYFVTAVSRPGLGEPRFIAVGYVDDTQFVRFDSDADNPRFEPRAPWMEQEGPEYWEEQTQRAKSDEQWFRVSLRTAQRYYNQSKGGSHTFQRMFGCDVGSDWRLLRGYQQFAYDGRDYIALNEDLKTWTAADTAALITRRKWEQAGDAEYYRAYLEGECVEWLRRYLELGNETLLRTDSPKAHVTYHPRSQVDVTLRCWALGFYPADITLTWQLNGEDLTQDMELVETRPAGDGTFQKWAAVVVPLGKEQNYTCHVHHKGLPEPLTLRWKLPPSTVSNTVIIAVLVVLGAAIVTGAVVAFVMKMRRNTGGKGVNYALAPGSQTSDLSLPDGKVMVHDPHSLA
T1 sequence (P01887 21-119 partner): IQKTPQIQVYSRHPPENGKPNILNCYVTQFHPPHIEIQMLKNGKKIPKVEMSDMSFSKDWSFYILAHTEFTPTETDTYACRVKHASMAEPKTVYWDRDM
Procedure: Each line represents tumor growth in a single mouse (n = 5 mice per group). AUC for each group is plotted in the panel on the right. Data are presented as mean ± SD. P values were calculated using 1-way ANOVA test adjusted for multiple comparisons (Tukey’s multiple comparison test). c Several truncated versions of the 18-mer Ccdc85c^MUT peptide were tested in tumor rejection assay. BALB/cJ mice were immunized and tumor challenged. Each line represents tumor growth in a single mouse. Although mice were immunized with individual peptides, the data for multiple peptides are grouped into one with the composition of the peptides shown on the right. The tumor rejection data for individual peptides are shown in Supplementary Fig. 1. Tumor rejection score (TRS) for each neoepitope is shown in the yellow box, where five represents a complete tumor protection and zero means no tumor rejection. d On the left panel, total Area Under the Curve (AUC) scores for each group in B are plotted. […] Error bars represent standard deviation (SD). The P values corresponding to the comparison of TRS = 0 with TRSs 5.0, 4.0–4.5 and 3.0–3.3 were respectively <0.0001, <0.0001 and 0.0002. P values were calculated using 1-way ANOVA test adjusted for multiple comparisons. On the right, peptides with the highest and the lowest TRS are shown. e Targeted MS-based detection of TYIRPFETKVK and YIRPFETKVK among MHC I peptides eluted from BMDCs pulsed with the 18-mer Ccdc85c^MUT. Heavy labeled synthetic peptides were spiked into the peptide samples; the labeled amino acid is marked with a bold character and the mutation is in red. Matched peak lists for the “heavy” and “light” ions were extracted and monitored, while only single charge y ions were plotted. See Methods for details. f Predicted (by NetMHC4.0) and measured IC50 values of the binding of candidate precise neoepitopes of Ccdc85c^MUT to K^d are shown. […] The affinities of the MS/TRS predicted neoepitopes were also measured for D^d and L^d; measured affinities were below the level of detection.

[6] = test system: D^d; assay: Measured peptide binding to D^d; design: species or system mouse
Procedure: (§3) Each line represents tumor growth in a single mouse (n = 5 mice per group). AUC for each group is plotted in the panel on the right. Data are presented as mean ± SD. P values were calculated using 1-way ANOVA test adjusted for multiple comparisons (Tukey’s multiple comparison test). c Several truncated versions of the 18-mer Ccdc85c^MUT peptide were tested in tumor rejection assay. BALB/cJ mice were immunized and tumor challenged. Each line represents tumor growth in a single mouse. Although mice were immunized with individual peptides, the data for multiple peptides are grouped into one with the composition of the peptides shown on the right. The tumor rejection data for individual peptides are shown in Supplementary Fig. 1. […] P values were calculated using 1-way ANOVA test adjusted for multiple comparisons. […] Matched peak lists for the “heavy” and “light” ions were extracted and monitored, while only single charge y ions were plotted. See Methods for details. f Predicted (by NetMHC4.0) and measured IC50 values of the binding of candidate precise neoepitopes of Ccdc85c^MUT to K^d are shown. […] The affinities of the MS/TRS predicted neoepitopes were also measured for D^d and L^d; measured affinities were below the level of detection.

[7] = test system: L^d; assay: Measured peptide binding to L^d; design: species or system mouse
Procedure: as §3

Sequence: DPSSTYIRPLETKVKLLD [un-mutated peptide, un-mutated 18-mer peptide of Ccdc85c]
- tumor rejection (in words) [1]: failed to elicit protection
- CD8 response (interferon γ ELIspot) [2]: no CD8 response

Sequence: IRPFETKVK [truncated version of the 18-mer Ccdc85c^MUT peptide]
- binding of Ccdc85c^MUT versus Ccdc85c^WT to H2-IA (MHC/GFP normalized to G9) [3]: No significant difference
- binding of Ccdc85c^MUT versus Ccdc85c^WT to H2-IE (MHC/GFP normalized to G9) [4]: No significant difference

Sequence: TYIRPFETKV [TYIRPFETKV]
- IC50 ([5]; assay kind not described): 0.247 µM

Sequence: TYIRPFETKVK
- measured affinity for K^d (in words) [5]: very low or undetectable
- measured affinity for D^d [6]: very low or undetectable
- measured affinity for L^d [7]: very low or undetectable
- binding of Ccdc85c^MUT versus Ccdc85c^WT to H2-IA (MHC/GFP normalized to G9) [3]: No significant difference
- binding of Ccdc85c^MUT versus Ccdc85c^WT to H2-IE (MHC/GFP normalized to G9) [4]: No significant difference

Sequence: YIRPFETKVK
- measured affinity for K^d (in words) [5]: very low or undetectable
- measured affinity for D^d [6]: very low or undetectable
- measured affinity for L^d [7]: very low or undetectable
- binding of Ccdc85c^MUT versus Ccdc85c^WT to H2-IA (MHC/GFP normalized to G9) [3]: No significant difference
- binding of Ccdc85c^MUT versus Ccdc85c^WT to H2-IE (MHC/GFP normalized to G9) [4]: No significant difference
